We go through one compound from patent US12691124B2, “Methods of controlling and improving brain health” (ICAHN SCHOOL OF MEDICINE AT MOUNT SINAI, priority 2019, dated 2026).

Data set [1] concerns young mice. The conditions noted are these: cited from earlier work.
Data set [2] relates to C57bl/6 mice. Nature of the data set: Kainic acid injection in the hippocampus, cCASP3 immunostaining. The conditions noted are these: 30 mg/kg i.p. daily 1 week, then kainic acid, 24 h. The data set is classed as in vivo, mouse. Here is the method: C57bl/6 mice were daily treated with IBET858 (30 mg/kg, i.p.) for 1 week, followed by stereotaxic injection of kainic acid in the hippocampus. Mice were perfused 24 hours after kainic acid injection and brains were immunostained for cCASP3 to identify dying cells.

The test system of data set [3] is primary cortical neurons. Nature of the data set: Polar metabolite mass spectrometry in primary cortical neurons. The data set is classed as cell-based, mouse. On the procedure:
Mass Spectrometry. Cell culture plates (2e6 cells per well n=7-8 per group) were washed with 75 mM Ammonium bicarbonate, pH 7.4, warmed to 37 degrees. Plates were quenched on liquid nitrogen for 10 seconds and then placed on dry ice. 1 ml of 70% Ethanol in MS-grade water was warmed to 75 degrees and added to each well. Plates were incubated in a 75 degree water bath for 3 minutes, shaking gently every minute. After 3 minutes, plates were placed on dry ice and once cooled, supernatants were lyophilized using the speed vacuum and stored at −80 degrees. Samples were shipped on dry ice to Cellzome who processed the samples for mass spectrometry and performed the initial analysis annotating metabolites. A semi-quantitative approach was used which determines the metabolite levels relative to a control rather than absolute concentrations. All detected ions were used for statistical analysis regardless of how many samples they were detected. This allows for the identification of low-abundant metabolites that may be present in only a subset of samples.
If IBET858 is indeed decreasing metabolism as indicated, comprehensive metabolic changes after BET inhibition should be observed. Therefore, an unbiased analysis of polar metabolites via mass spectrometry was employed (FIGS. 12A-12C). Accordingly, the levels of 100-150 unique metabolites are changed by chronic BET inhibition in primary cortical neurons.

The test system of data set [4] is primary cortical neurons. Nature of the data set: Seahorse mitochondrial stress test. It counts as cell-based, mouse. Here is the method:
Seahorse Mitochondrial Stress Test. In this assay, two fluorescent probes that detect the concentration of oxygen or protons are added to the culture media. Cellular metabolism causes rapid changes in the concentration of these molecules in the media which can be detected by changes in sensor fluorescence. The oxygen consumption rate (OCR) indicates mitochondrial respiration and the extracellular acidification rate (ECAR) is largely due to glycolysis. Certain pathways can be analyzed by the sequential addition of inhibitors to the media and measuring ensuing changes to the OCR and ECAR. First baseline readings are measured to give an understanding of basal metabolic rates. Then the last step of oxidative phosphorylation, the ATP synthase, is inhibited by oligomycin to determine how much oxygen is being used for ATP production. FCCP is next added to decouple the electron transport chain from the ATP synthase by increasing proton permeability of the membrane which drives oxidative phosphorylation to its maximum. Lastly, complex I is inhibited by rotenone to completely shut down mitochondrial respiration. Any oxygen that is consumed after rotenone is due to other cellular processes such as fatty acid metabolism. On the day of the assay, cultures were washed times with artificial CSF (aCSF) [120 mM NaCl, 3.5 mM KCl, 1.3 mM CaCl2, 1 mM MgCl2, 0.4 mM KH2PO4, 5 mM HEPES, 0.4% BSA, 10 mM Sodium-pyruvate, 15 mM Glucose], and incubated at 37° C. without CO2 for one hour prior to assay. Oxygen Consumption rate (OCR) was measured using the Seahorse XFe24 Analyzer (Agilent), under basal conditions and after the sequential addition of […] [carbonyl cyanide p-(trifluoromethoxy) phenylhydrazone], […]. Metrics were calculated according to the following equations. All values were calculated per well and normalized to cell number for each experiment. Each experiment was normalized to the average of all controls across all experiments (n=3) performed.
To understand if this was the case, the major energetic pathway in neurons, mitochondrial respiration, after BET inhibition was assessed using Seahorse technology. […] In addition to lower mitochondrial activity, proton leak which contributes to the production of reactive oxygen species (ROS) is lower after BET inhibition. Because increased ROS levels are detrimental to neuronal health, lower ROS production could also increase neuronal survival after BET inhibition.
Glycolysis also contributes to neuronal metabolism and several key glycolytic metabolites (Fructose 6-phosphate, Glucose-6-phosphate, Phosphoenolpyruvate) were decreased after IBET858. […] Additionally, the decreased maximal responses indicate that this metabolic state is relatively stable.

The subject of data set [5] is primary cortical neurons. Nature of the data set: Axion multielectrode array recording of neuronal firing. The data set is classed as cell-based, mouse. On the procedure:
Axion Recordings. A 48-well multielectrode array plate (Axion) was coated with 0.1% PEI for 1 hour at 37 degrees and washed four times with deionized water. Plates were dried overnight at room temperature in a sterile hood. Plates were incubated with 20 ug/ml laminin for one hour at 37 degrees before cells were seeded onto the plate. Primary cortical neurons were plated 50,000 per well. Plates were equilibrated on the Axion Maestro system at 37 degrees C. for 5 minutes before each 10 minute recording session. Baseline activity was recorded at day 7 before cells were treated with either I-BET858 (1 um) or DMSO. Electrical activity was recorded every day until day 21 and then at regular intervals until activity was no longer detected.
Therefore to determine the effect of chronic BET inhibition on electrical activity, neurons were cultured on the Axion Microelectrode array system in the presence of IBET858. Primary cortical neurons first show electrical activity at day 7 which gradually increases over time, peaking around day 14 consistent with published time courses of synaptogenesis and electrical activity in vitro. […] In one experiment, IBET858 treated neurons lived until day 77, 86% longer than control neurons.
One could argue that the protective effect of IBET858 was caused by a decreased sensing of glutamate levels. […] To further explore this hypothesis, neuronal firing in response to a sub-lethal dose of glutamate (50 μM) was measured using the Axion system (FIG. 10A). At day 14, neurons treated with 50 μM glutamate increased their firing rate 127.4+/−44.4% compared to baseline. […] Therefore, it is appropriate to use glutamate as a neuronal death assay.

Turning to `CC(=O)N1c2ccc(-c3ccc(CN4CCCCC4)cc3)cc2[C@H](Nc2ccccc2)CC1C` (stereo in doubt) [IBET858], the “neuronal gene expression in young mice” value in data set [1] (mouse, in vivo) is listed as “selective suppression of neuronal gene expression”. Further, the “behavioural phenotype of young mice” value in data set [1] (pharmacological suppression of BET proteins in the brain of young mice) was “development of an autism-like syndrome”. The “glutamate-induced toxicity in vivo (cCASP3 dying cells)” value in data set [2] was “protects neurons from glutamate-induced toxicity in vivo”. Besides, in data set [3] (1 week IBET858), the “enrichment of decreased metabolites, Arginine/Proline metabolism (OR)” value is on record as 26.8; the “enrichment of decreased metabolites, Glutamate metabolism (OR)” value is listed as 24.4; the “enrichment of decreased metabolites, Tyrosine metabolism (OR)” value is listed as 30.33; the “enrichment of decreased metabolites, glycolysis (OR)” value was determined as 48.8. In addition, in data set [3] (1 week IBET858), the “enrichment of decreased metabolites, pentose phosphate pathway (OR)” value amounted to 42 and the “enrichment of increased metabolites, aspartate metabolism pathway (OR)” value is 23.5. Also, the “amino acids significantly decreased” value in data set [3] (1 week IBET858, 13/20) turned out to be 65%. The unique metabolites changed in data set [3] (chronic BET inhibition (1 week)) is 100-150 metabolites. Moreover, in data set [4] (24 h or 1 week IBET858), the mitochondrial coupling efficiency result is “increased coupling efficiency”. In data set [4] (chronic BET inhibition), the “basal glycolysis (extracellular acidification rate)” value is listed as “slightly decreased”, the “basal mitochondrial respiration rates” value is recorded as “significantly decreases”, the “decrease in ATP production” value stood at 50% and the maximum glycolytic rate result was “significantly attenuated”. Further, in data set [4] (chronic BET inhibition), the maximum mitochondrial activity result is given as “also decreased” and the proton leak entry is recorded as “lower”. In data set [5] (1 μM), the “day until which neurons lived, one experiment” value amounted to 77 days and the “lifetime longer than control neurons, one experiment” value is reported as 86%. Besides, the “neuronal survival (firing) after washout” value in data set [5] (1 uM for 1 week followed by washout at day 14) was “prolonged neuronal survival that is maintained even in the absence of IBET”. Moreover, the “activity patterns of long-lived treated neurons” value in data set [5] (1 uM from day 7) is recorded as “maintain normal activity patterns”. Moreover, the “day until which neurons continued to fire” value in data set [5] (1 μM, control ceased firing on average at day 29) worked out at 45 days. Moreover, in data set [5] (50 μM glutamate, day 14, control 127.4+/−44.4%), the “increase in firing rate compared to baseline after glutamate” value is recorded as 129.3+/−26.2%.
